Like-named read-outs stand apart in the source and are kept apart here.
Legend:
Format in all cases: cell-based
human (h) PAR2 = target: T1, human (h) PAR2 (Homo sapiens, UniProt P55085); test: IP1 accumulation assay in KNRK-hPAR2 cells; settings: 100 nM 2F; 30 μM of antagonist; read-out: KNRK-PAR2 100 nM 2F: ND (inhibition of 2F at 30 μM of antagonist)
T1 construct: expressed in transfected cells; host or cells: KNRK cells (KNRK-hPAR2)
T1 sequence (P55085 26-397): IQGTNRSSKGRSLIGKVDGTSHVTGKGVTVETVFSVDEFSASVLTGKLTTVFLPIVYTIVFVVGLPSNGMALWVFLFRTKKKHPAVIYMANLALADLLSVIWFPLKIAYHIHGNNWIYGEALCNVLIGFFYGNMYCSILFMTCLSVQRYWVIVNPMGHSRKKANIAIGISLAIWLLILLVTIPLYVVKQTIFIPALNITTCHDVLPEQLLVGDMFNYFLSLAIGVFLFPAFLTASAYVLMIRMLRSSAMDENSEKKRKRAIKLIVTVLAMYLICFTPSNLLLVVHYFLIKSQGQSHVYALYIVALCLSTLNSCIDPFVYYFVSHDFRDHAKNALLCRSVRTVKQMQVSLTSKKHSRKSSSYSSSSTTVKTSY
Description: (§1) KNRK-hPAR2, KNRK or HT-29 cells were seeded at a density of 50×10^3 cells/well in a clear poly-d-lysine coated 96 well tissue culture plate. Following 24 h incubation at 37° C. and 5% CO2, media was removed and replaced with 80 μl IP1 stimulation buffer (10 mM HEPES, 1 mM CaCl2, 0.5 mM MgCl2, 4.2 mM KCl, 146 mM NaCl, 5.5 mM glucose, 50 mM LiCl). Following stimulation buffer addition, the wells received 10 μl of 10× antagonists or DMSO vehicle. All plates were further incubated at 37° C., 5% CO2 for 30 min. 10 μl of 2F or ATP was added to the plates and further incubated for 40 min. Following incubation, stimulation buffer was quickly removed by aspiration and replaced with 25 μl lysis buffer (IP-One HTRF® assay kit, Cisbio). Following incubation of the lysates at 37° C., 5% CO2 for 10′, 10 μl lysate was transferred to a 384-well OptiPlate (PerkinElmer) and detected using the IP-One HTRF® assay kit (Cisbio).
(§2) Compounds of the invention (added at 10×concentrations in a 10 μL volume) were incubated for 30 min prior to the addition of 10 μM ATP or 100 nM or 300 nM PAR2 agonist (2F; EC80, added at 10×concentrations in a 10 μL volume) and then further incubated for 40 min. After lysis, the inositol phosphate 1 was quantified with IP-One HTRF® assay kit, Cisbio. The data was analysed with Prism, GraphPad to calculate the IC50 values, shown below in Table 1.
(§3) Inhibition of PAR2 signaling with known PAR2 inhibitor I-343 (FIG. 14A) was investigated in HT-29 cells and HEK293 cells, which express endogenous PAR2, and in KNRK cells expressing human (h) PAR2. Accumulation of inositol phosphate-1 (IP1) was measured in response to the PAR2-selective agonist 2-Furoyl-LIGRLO-NH2 (2F), an analogue of the trypsin-exposed tethered ligand, or trypsin.
(§4) KNRK-hPAR2, KNRK, HEK293, or HT-29 cells were seeded at a density of 50×10^3 cells/well onto clear 96-well plates (PerkinElmer). After 24 h of culture, medium was replaced with IP1 stimulation buffer (10 mM HEPES, 1 mM CaCl2, 0.5 mM MgCl2, 4.2 mM KCl, 146 mM NaCl, 5.5 mM glucose, 50 mM LiCl; 37° C., 5% CO2.). Cells were pre-incubated with the antagonist or vehicle for 30 min prior to the addition of agonist. Cells were then further incubated for 40 min. Stimulation buffer was […]

PAR2 = target: T2, PAR2 (Homo sapiens, UniProt P55085); test: IP1 accumulation assay in HT-29 cells (endogenous PAR2); settings: 2F (300 nM)-induced IP1, HT-29 cells
T2 construct: HT-29 cells and HEK293 cells, which express endogenous PAR2; endogenous in cells; host or cells: HT-29
T2 sequence (P55085 26-397): T1 sequence (P55085 26-397)
Description: as §1, §2, §3, §4

mouse DRG neurons [1] = test: Patch clamp rheobase of DRG neurons: IBS-D biopsy supernatant-induced hyperexcitability
Description: An investigation as whether proteases from mucosal biopsies of IBS patients cause a persistent hyperexcitability of nociceptors was conducted by a mechanism that entails endosomal signaling of PAR2. Biopsies of colonic mucosa from patients with diarrhea-predominant IBS (IBS-D) or healthy control (HC) subjects were placed in culture medium (24 h, 37° C.). Mouse DRG neurons were then exposed to biopsy supernatants (30 min, 37° C.) and washed. Rheobase was measured 30 min after washing to assess persistent hyperexcitability. Supernatants of biopsies from IBS-D patients caused a persistent decrease in rheobase, consistent with hyperexcitability, when compared to supernatants from HC subjects (rheobase at 30 min: HC, 78.33±4.41 pA, 12 neurons, supernatant from 4 HC; IBS-D, 54.55±4.74 pA, 11 neurons, supernatant from 4 IBS-D; P<0.05; ANOVA, Tukey's multiple comparisons test) (FIG. 6A, B). I-343 (10 μM), Dy4 (dynamin inhibitor, 30 μM) and PD98059 (MEK1 inhibitor, 50 μM) abolished IBS-D-induced hyperexcitability of nociceptors (FIG. 6A-D).
The Queen's University Human Ethics Committee approved human studies. All subjects gave informed consent. Endoscopic biopsies were obtained from the descending colon of 13 adult IBS-D patients (12 female) diagnosed using ROME III criteria for diarrhea predominant IBS and of 12 health controls. All IBS patients had symptoms greater than 1 year and most were greater than 5 years. Celiac disease was excluded by blood test and patients over 40 years with daily diarrhea were biopsied at the time of colonoscopy to exclude microscopic colitis. […] Biopsies (8 samples per patient) were incubated in 250 μl of RPMI medium containing 10% fetal calf serum, penicillin/streptomycin and gentamicin/amphotericin B (95% O2/5% […], 24 h, 37° C.). Supernatants were stored at −80° C. Supernatants from 4-6 patients were pooled and studied in individual experiments.
DRG innervating the colon (T9-T13) were collected from C57BL/6 mice. Ganglia were digested by incubation in collagenase IV (1 mg/ml, Worthington) and dispase (4 mg/ml, Roche) (10 min, 37° C.). DRG were triturated with a fire-polished Pasteur pipette, and further digested (5 min, 37° C.). Neurons were washed, plated onto laminin- (0.017 mg/ml) and poly-D-lysine- (2 mg/ml) coated glass coverslips, and were maintained in F12 medium containing 10% fetal calf serum, penicillin and streptomycin (95% air, 5% CO2, 16 h, 37° C.) until retrieval for electrophysiological studies.
Small-diameter (<30 pF capacitance) neurons were studied because they display characteristics of nociceptors (Valdez-Morales E. E. et al., Am J Gastroenterol 2013, 108(10): 1634-1643). Changes in excitability were quantified by measuring rheobase. Whole-cell perforated patch-clamp recordings were made using Amphotericin B (240 μg/ml, Sigma Aldrich) in current clamp mode at room temperature. The recording chamber was perfused with external solution at 2 ml/min. Recordings were made using Multiclamp 700B or Axopatch 200B amplifiers, digitized by Digidata 1440A or 1322A, and processed using pClamp 10.1 software (Molecular Devices). Solutions had the composition (mM): pipette—K-gluconate 110, KC130, HEPES 10, MgCl2 1, CaCl2 2; pH 7.25 with 1 M KOH; external—NaCl 140, KCl 5 HEPES 10, glucose 10, MgCl2 1, CaCl2 2; pH to 7.3-7.4 with 3 M NaOH. […] Neurons were also preincubated with trypsin (50 nM, 10 min), NE (390 nM, 30 min), CS (500 nM, 60 min), or vehicle (37° C.), and washed. Rheobase was measured at T 0 or T 30 min after washing. To investigate mechanisms of protease-evoked effects, neurons were incubated with I-343 (100 nM, 300 nM, 10 μM, 30 min preincubation), SCH79797 (1 μM, 10 min), Dy4 (30 μM, 30 min), PS2 (15 μM, 30 min), PD98059 (50 μM, 30 min), GF109203X (10 μM, 30 min), or vehicle (preincubation and inclusion throughout). In experiments using the tripartite antagonist, neurons were preincubated with Compound 10 (30 μM, 60 min, 37° C.) or vehicle and washed. […]

mouse DRG neurons [2] = test: Patch clamp rheobase of DRG neurons: protease-induced hyperexcitability of nociceptors
[3] = I-343 10 μM, Dy4 30 μM, PD98059 50 μM

SMILES | inhibition at 30 µM (human (h) PAR2) | IC50 (PAR2; read-out: HT-29 300 nM 2F (IC50)) | IC50 (PAR2; read-out: HT-29 300 nM 2F pIC50 ± SEM (converted)) | excitability of neurons treated with HC supernatant (mouse DRG neurons [1]) | rheobase at 30 min, IBS-D supernatant (mouse DRG neurons [1]) | persistent actions of IBS-D supernatant on nociceptor excitability (mouse DRG neurons [1]; 30 μM, 60 min preincubation, washed) | baseline rheobase (mouse DRG neurons [2]) | initial excitability at 0 min after trypsin (mouse DRG neurons [2]) | persistent response at 30 min after trypsin (mouse DRG neurons [2]) | IBS-D-induced hyperexcitability of nociceptors (mouse DRG neurons [1]; [3]) | rheobase of neurons exposed to HC supernatant (mouse DRG neurons [1]; [3]) | initial trypsin-induced hyperexcitability (mouse DRG neurons [2]; PD98059 50 μM, GF109203X 10 μM) | persistent trypsin-induced hyperexcitability (mouse DRG neurons [2]; PD98059 50 μM, GF109203X 10 μM)
CC(C)CCCC(C)[C@H]1CCC2C3CCC4C[C@@H](OC(=O)CC(NC(=O)CCOCCOCCOCCOCCOCCOCCOCCOCCOCCOCCOCCOCCNC(=O)Cn5cc(C(=O)N6CCN(C(=O)c7cn8nc(-c9ccc(F)cc9)cc(C(C)(C)C)c8n7)C(C)(C)C6)nn5)C(N)=O)CC[C@]4(C)C3CC[C@@]21C (stereo in doubt) [Compound 10, (3S,10S,13R,17R)-10,13-dimethyl-17-((R)-6-methylheptan-2-yl)hexadecahydro-1H-cyclopenta[a]phenanthren-3-yl (44S)-1-(4-(4-(8-(tert-butyl)-6-(4-fluorophenyl)imidazo[1,2-b]pyridazine-2-carbonyl)-3,3-dimethylpiperazine-1-carbonyl)-1H-1,2,3-triazol-1-yl)-44-carbamoyl-2,42-dioxo-6,9,12,15,18,21,24,27,30,33,36,39-dodecaoxa-3,43-diazahexatetracontan-46-oate] | < 50% | 670 nM | 661 nM | did not affect | 64.7±3.84 pA | completely prevented | no effect | did not affect | prevented |  |  |  | 
COc1cccc(-c2cc(=O)c3ccccc3o2)c1N [PD98059] |  |  |  |  |  |  |  |  |  | abolished | no effect | did not affect | prevented
